How the values were obtained:
Assay type in all cases: cell-based
[1] = target: D2 DAR (Homo sapiens, UniProt P14416); experiment: DiscoverX D2 DAR β-arrestin recruitment assay; parameters: host or cells: CHO; settings: EC80 concentration of DA (1 μM)
Text: For a secondary-screen and selectivity assays, DAR PathHunter®-arrestin GPCR cell lines from DiscoverX (Fremont, CA) were used. In the D2 DAR PathHunter®-arrestin GPCR cell line, the D2 DAR is overexpressed and fused with a small 42-amino acid fragment of β-galactosidase called ProLink™ on a CHO cellular background expressing a fusion protein of β-arrestin and a larger N-terminal deletion mutant of β-galactosidase (“enzyme acceptor”). When the D2 DAR is activated by dopamine, it stimulates binding of β-arrestin to the ProLink-tagged DAR and the two complementary parts of β-galactosidase form a functional enzyme. When substrate (PathHunter™ Detection reagent) is added, β-galactosidase hydrolyzes it and generates a chemiluminescent signal.

[2] = target: T1, D3 DAR (Homo sapiens, UniProt P35462); experiment: DiscoverX D3 DAR β-arrestin recruitment assay; parameters: host or cells: CHO; settings: for IC50: EC80 concentration of DA (30 nM), read-out: D3 DAR IC50; for Emax / D3 DAR Imax: Imax=maximum inhibition, EC80 DA (30 nM)
Text: A D3 DAR β-arrestin cell line from DiscoverX (Fremont, CA) was used as described in the protocol below (Table 2). A CHO cell line engineered to overexpress the D3 DAR fused with a small 42-amino acid fragment of β-galactosidase called ProLink™ and a fusion protein consisting of β-arrestin and a larger N-terminal deletion mutant of β-galactosidase was used (DiscoverX catalogue number 93-0579C2). When the D3 DAR is activated by dopamine, it stimulates binding of β-arrestin to ProLink-tagged D3 DARs, and the two complementary parts of β-galactosidase form a functional enzyme. When substrate (PathHunter® Detection reagent, DiscoverX 93-0001) is added, β-galactosidase hydrolyzes it and generates a chemiluminescent signal.

[3] = target: T1, D3 DAR; experiment: Go BRET activation assay, D3 DAR; settings: EC80 DA (30 nM); for Emax: 5 min, read-out: D3 Go BRET Imax
Experimental: Briefly, HEK293T cells transiently expressing either the D2 DAR or D3 DAR and GαoA-Rluc8, untagged-β1, and mVenus-γ2 were harvested with EBSS, plated in 96-well white plates at 20,000 cells/well in DPBS and incubated at RT for 45 min. […] BRET signal was determined by quantifying and calculating the ratio of the light emitted by mVenus (525 nm) over that emitted by RLuc8 (485 nm) using a PHERAstar FSX Microplate Reader (BMG Labtech).

T1 sequence (P35462 whole entry, the tested form may be a part): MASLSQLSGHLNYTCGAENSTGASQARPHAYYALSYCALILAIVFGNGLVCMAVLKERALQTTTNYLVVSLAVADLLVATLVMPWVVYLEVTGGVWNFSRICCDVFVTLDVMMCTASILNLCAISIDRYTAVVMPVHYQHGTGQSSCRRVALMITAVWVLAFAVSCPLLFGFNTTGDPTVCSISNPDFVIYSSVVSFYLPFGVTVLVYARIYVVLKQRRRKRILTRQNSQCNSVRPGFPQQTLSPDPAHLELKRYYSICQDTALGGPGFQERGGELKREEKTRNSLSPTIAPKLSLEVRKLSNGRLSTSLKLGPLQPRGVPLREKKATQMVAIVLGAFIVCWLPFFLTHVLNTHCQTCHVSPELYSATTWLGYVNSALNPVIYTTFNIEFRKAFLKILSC
Chain of D2 DAR (P14416 whole entry, the tested form may be a part): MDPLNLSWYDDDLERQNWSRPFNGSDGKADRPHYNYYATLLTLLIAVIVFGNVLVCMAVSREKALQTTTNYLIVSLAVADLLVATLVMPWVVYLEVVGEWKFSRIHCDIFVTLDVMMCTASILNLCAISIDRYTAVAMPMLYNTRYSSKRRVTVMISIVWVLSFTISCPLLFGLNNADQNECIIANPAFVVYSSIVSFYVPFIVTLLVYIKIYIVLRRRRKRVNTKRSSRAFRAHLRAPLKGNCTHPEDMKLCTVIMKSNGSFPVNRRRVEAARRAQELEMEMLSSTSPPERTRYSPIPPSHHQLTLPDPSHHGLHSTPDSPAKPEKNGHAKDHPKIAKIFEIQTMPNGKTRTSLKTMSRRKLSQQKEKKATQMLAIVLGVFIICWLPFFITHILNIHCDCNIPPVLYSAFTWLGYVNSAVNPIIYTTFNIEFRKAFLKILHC

D2 DAR Imax [1] | IC50 [1] | IC50 [2] | Emax [2] | Emax [3] | IC50 [3] | Compound | D3 DAR Imax [2] | D3 Go BRET Imax [3]
NA (“NA” indicates not active) | > 100 µM | 50 to 100 µM | 80 to 100% | > 100% | 10 to 50 µM | Cc1[nH]c(C)c(S(=O)(=O)Nc2ccc(C(F)(F)F)c(Cl)c2)c1C(=O)N1CCN(C(=O)OC(C)(C)C)CC1 [compound 19, tert-butyl 4-(4-(N-(3-chloro-4-(trifluoromethyl)phenyl)sulfamoyl)-2,5-dimethyl-1H-pyrrole-3-carbonyl)piperazine-1-carboxylate] | – | –
NA (“NA” indicates not active) | > 100 µM | < 10 µM | 80 to 100% | > 100% | 1 to 10 µM | Cc1[nH]c(C)c(S(=O)(=O)Nc2ccc(Cl)c(C(F)(F)F)c2)c1C(=O)N1CCCC1 [compound 7] | – | –
NA (“NA” indicates not active) | > 100 µM | < 10 µM | 80 to 100% | 80 to 100% | 10 to 50 µM | CCc1ccc(NS(=O)(=O)c2c(C)[nH]c(C)c2C(=O)N2CCCC2)cc1 [compound 15] | – | –
NA (“NA” indicates not active) | > 100 µM | 10 to 50 µM | 80 to 100% | > 100% | 10 to 50 µM | Cc1[nH]c(C)c(S(=O)(=O)Nc2ccc(Cl)cc2C(F)(F)F)c1C(=O)N1CCC(F)(F)C1 [compound 42] | – | –
NA (“NA” indicates not active) | > 100 µM | 10 to 50 µM | 80 to 100% | > 100% | 1 to 10 µM | Cc1[nH]c(C)c(S(=O)(=O)Nc2ccc(C(F)(F)F)c(Cl)c2)c1C(=O)N1CC(F)(F)C(F)(F)C1 [compound 27, N-(3-chloro-4-(trifluoromethyl)phenyl)-2,5-dimethyl-4-(3,3,4,4-tetrafluoropyrrolidine-1-carbonyl)-1H-pyrrole-3-sulfonamide] | – | –
NA (“NA” indicates not active) | > 100 µM | < 10 µM | 80 to 100% | 80 to 100% | 1 to 10 µM | Cc1[nH]c(C)c(S(=O)(=O)Nc2ccc(S(F)(F)(F)(F)F)cc2)c1C(=O)N1CCC(F)(F)C1 [compound 28] | – | –
NA (“NA” indicates not active) | > 100 µM | 50 to 100 µM | – | – | > 50 µM | Cc1[nH]c(C)c(S(=O)(=O)N2CCC(F)(F)C2)c1C(=O)Nc1ccc(C(F)(F)F)c(Cl)c1 [compound 24] | Curve Incomplete | –
NA (“NA” indicates not active) | > 100 µM | 10 to 50 µM | 80 to 100% | > 100% | 10 to 50 µM | Cc1ccc(NS(=O)(=O)c2c(C)[nH]c(C)c2C(=O)N2CCCC2)cc1F [compound 16] | – | –
NA (“NA” indicates not active) | > 100 µM | 10 to 50 µM | 80 to 100% | > 100% | 10 to 50 µM | Cc1[nH]c(C)c(S(=O)(=O)Nc2cc(Cl)cc(C(F)(F)F)c2)c1C(=O)N1CCC(F)(F)C1 [compound 40, N-(3-chloro-5-(trifluoromethyl)phenyl)-4-(3,3-difluoropyrrolidine-1-carbonyl)-2,5-dimethyl-1H-pyrrole-3-sulfonamide] | – | –
NA (“NA” indicates not active) | > 100 µM | < 10 µM | 80 to 100% | 80 to 100% | < 1 µM | Cc1[nH]c(C)c(S(=O)(=O)Nc2cc(Cl)c(C(F)(F)F)c(Cl)c2)c1C(=O)N1CCC(F)(F)C1 [compound 35, N-(3,5-dichloro-4-(trifluoromethyl)phenyl)-4-(3,3-difluoropyrrolidine-1-carbonyl)-2,5-dimethyl-1H-pyrrole-3-sulfonamide] | – | –
NA (“NA” indicates not active) | > 100 µM | > 100 µM | – | > 100% | 1 to 10 µM | Cc1[nH]c(C)c(S(=O)(=O)Nc2ccc(F)cc2)c1C(=O)N1CCCC1 [compound 32] | Curve Incomplete | –
NA (“NA” indicates not active) | > 100 µM | 10 to 50 µM | – | – | – | CCOC(=O)C1=NOC2(C1)C(=O)Nc1ccc(OC(F)(F)F)cc12 (stereo not shown) [compound 45] | + (A “+” is used to denote compounds with D3 DAR Imax (Imax=maximum inhibition) between 80% to 100%) | –
NA (“NA” indicates not active) | > 100 µM | 10 to 50 µM | 80 to 100% | > 100% | 1 to 10 µM | Cc1ccc(NS(=O)(=O)c2c(C)[nH]c(C)c2C(=O)N2CCCC2C)cc1Cl (stereo not shown) [compound 3] | – | –
NA (“NA” indicates not active) | > 100 µM | < 10 µM | 80 to 100% | > 100% | 10 to 50 µM | Cc1[nH]c(C)c(S(=O)(=O)Nc2ccc(C(F)(F)F)c(Cl)c2)c1C(=O)N(C)C [compound 21, 4-(n-(3-chloro-4-(trifluoromethyl)phenyl)sulfamoyl)-N,N,2,5-tetramethyl-1H-pyrrole-3-carboxamide] | – | –
NA (“NA” indicates not active) | > 100 µM | 10 to 50 µM | 80 to 100% | > 100% | 10 to 50 µM | CCN(C)C(=O)c1c(C)[nH]c(C)c1S(=O)(=O)Nc1ccc(C(F)(F)F)c(Cl)c1 [compound 29] | – | –
NA (“NA” indicates not active) | > 100 µM | 10 to 50 µM | 80 to 100% | > 100% | 1 to 10 µM | CCc1[nH]c(CC)c(S(=O)(=O)Nc2ccc(C(F)(F)F)c(Cl)c2)c1C(=O)N1CCCC1 [compound 39, N-(3-chloro-4-(trifluoromethyl)phenyl)-2,5-diethyl-4-(pyrrolidine-1-carbonyl)-1H-pyrrole-3-sulfonamide] | – | –
NA (“NA” indicates not active) | > 100 µM | 10 to 50 µM | 80 to 100% | 80 to 100% | 1 to 10 µM | CCc1ccc(NS(=O)(=O)c2c(C)[nH]c(C)c2C(=O)N2CCCC2)cc1Cl [compound 8] | – | –
NA (“NA” indicates not active) | > 100 µM | 10 to 50 µM | 80 to 100% | > 100% | 10 to 50 µM | Cc1ccc(NS(=O)(=O)c2c(C)[nH]c(C)c2C(=O)N2CCCCC2)cc1Cl [compound 11] | – | –
NA (“NA” indicates not active) | > 100 µM | 10 to 50 µM | 80 to 100% | > 100% | 1 to 10 µM | Cc1[nH]c(C)c(S(=O)(=O)Nc2cccc(Cl)c2)c1C(=O)N1CCCC1 [compound 14] | – | –
NA (“NA” indicates not active) | > 100 µM | 10 to 50 µM | 80 to 100% | > 100% | 1 to 10 µM | Cc1[nH]c(C)c(S(=O)(=O)Nc2ccc(C(C)C)cc2)c1C(=O)N1CCCC1 [compound 4] | – | –
NA (“NA” indicates not active) | > 100 µM | 10 to 50 µM | 80 to 100% | – | > 50 µM | Cc1ccc(NS(=O)(=O)c2c(C)[nH]c(C)c2C(=O)N2CCCC2)cc1 [compound 10] | – | –
NA (“NA” indicates not active) | > 100 µM | 10 to 50 µM | 80 to 100% | > 100% | 10 to 50 µM | Cc1ccc(NS(=O)(=O)c2c(C)[nH]c(C)c2C(=O)N2CCC(F)(F)C2)cc1Cl [Cmp. 2] | – | –
NA (“NA” indicates not active) | > 100 µM | < 10 µM | 80 to 100% | – | – | Cc1[nH]c(C)c(S(=O)(=O)Nc2cc(Cl)c(C(F)(F)F)cc2Br)c1C(=O)N1CCC(F)(F)C1 [compound 41, N-(2-bromo-5-chloro-4-(trifluoromethyl)phenyl)-4-(3,3-difluoropyrrolidine-1-carbonyl)-2,5-dimethyl-1H-pyrrole-3-sulfonamide] | – | –

Compound | D2 DAR Imax [1] | IC50 [1] | IC50 [2] | Emax [2] | Emax [3] | IC50 [3] | D3 DAR Imax [2] | D3 Go BRET Imax [3]
N-(3-choro-4-methylphenyl)-2,5-dimethyl-4-(pyrrolidine-1-carbonyl)-1H-pyrrole-3-sulfonamide [compound 31] | Curve Incomplete | > 100 µM | > 100 µM | – | – | 10 to 50 µM | Curve Incomplete | ++ (a “++” indicates a detectable Imax of more than 100%, indicative of possible inverse agonist activity)
N-(3-chloro-4-(trifluoromethyl)phenyl)-2,5-dimethyl-4-(morpholine-4-carbonyl)-1H-pyrrole-3-sulfonamide [compound 30] | NA (“NA” indicates not active) | > 100 µM | > 100 µM | – | – | – | Curve Incomplete | –

— patent US20240336604A1 (THE UNITED STATES OF AMERICA, AS REPRESENTED BY THE …, priority 2021, published 2024)
